Measured values reported in ChEMBL document CHEMBL1909046, “DrugMatrix in vitro pharmacology data”.
Where a SMILES comes first, the peptide text is derived from it. Bridges are numbered along the chain shown (N, C = ends). [ ]: non-standard residue; d: D form. The star is where a group is joined. Threoninol(2S,3R) = C[C@@H](O)[C@H](CO)N*

Key:
Cannabinoid receptor 1 = Cannabinoid receptor 1 (Homo sapiens, UniProt P21554); format: cell membranes, Chem-1, Membrane; settings: chem-1; also: in other assays of this panel Not Active means under 50% inhibition at 10 µM
Sequence of Cannabinoid receptor 1 (P21554 whole entry): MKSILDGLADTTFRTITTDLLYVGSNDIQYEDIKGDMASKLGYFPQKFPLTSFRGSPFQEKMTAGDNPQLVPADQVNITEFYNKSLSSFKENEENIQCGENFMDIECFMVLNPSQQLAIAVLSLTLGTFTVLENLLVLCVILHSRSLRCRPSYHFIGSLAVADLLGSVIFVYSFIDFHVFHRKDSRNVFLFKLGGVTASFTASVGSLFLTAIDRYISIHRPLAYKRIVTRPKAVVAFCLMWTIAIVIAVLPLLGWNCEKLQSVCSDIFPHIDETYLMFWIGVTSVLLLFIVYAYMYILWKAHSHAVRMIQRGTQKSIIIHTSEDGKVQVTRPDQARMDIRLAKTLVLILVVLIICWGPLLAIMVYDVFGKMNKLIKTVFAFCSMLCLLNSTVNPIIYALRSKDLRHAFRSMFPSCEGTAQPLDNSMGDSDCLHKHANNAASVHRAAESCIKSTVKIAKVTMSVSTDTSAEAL

[1] = DRUGMATRIX: Sigma2 radioligand binding (ligand: [3H] Ifenprodil); format: cell membranes, Rattus norvegicus, Wistar, Brain, Membrane; settings: Not Active = under 50% inhibition at 10 µM
Cytochrome P450 3A4 = Cytochrome P450 3A4 (Homo sapiens, UniProt P08684); settings: bti-tn-5b1-4; also: in other assays of this panel Not Active means under 50% inhibition at 10 µM
Sequence of Cytochrome P450 3A4 (P08684 whole entry): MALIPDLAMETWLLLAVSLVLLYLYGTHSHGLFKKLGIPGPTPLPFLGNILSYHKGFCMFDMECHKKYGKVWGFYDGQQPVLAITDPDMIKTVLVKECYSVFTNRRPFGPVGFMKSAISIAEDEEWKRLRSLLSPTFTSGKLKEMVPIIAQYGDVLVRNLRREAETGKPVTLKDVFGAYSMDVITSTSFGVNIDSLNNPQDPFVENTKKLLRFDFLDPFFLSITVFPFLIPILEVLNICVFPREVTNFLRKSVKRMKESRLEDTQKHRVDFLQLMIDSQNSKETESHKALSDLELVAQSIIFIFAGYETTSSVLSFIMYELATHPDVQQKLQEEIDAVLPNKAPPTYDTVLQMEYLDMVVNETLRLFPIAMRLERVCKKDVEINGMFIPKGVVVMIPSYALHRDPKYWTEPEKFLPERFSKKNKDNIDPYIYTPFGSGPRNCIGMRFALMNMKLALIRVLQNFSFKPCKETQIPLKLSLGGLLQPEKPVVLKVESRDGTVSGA

Adenosine receptor A2a = Adenosine receptor A2a (Homo sapiens, UniProt P29274); experiment: DRUGMATRIX: Adenosine A2A radioligand binding (ligand: […]); format: cell membranes, HEK293, Membrane; settings: hek293; Not Active = under 50% inhibition at 10 µM
Sequence of Adenosine receptor A2a (P29274 whole entry): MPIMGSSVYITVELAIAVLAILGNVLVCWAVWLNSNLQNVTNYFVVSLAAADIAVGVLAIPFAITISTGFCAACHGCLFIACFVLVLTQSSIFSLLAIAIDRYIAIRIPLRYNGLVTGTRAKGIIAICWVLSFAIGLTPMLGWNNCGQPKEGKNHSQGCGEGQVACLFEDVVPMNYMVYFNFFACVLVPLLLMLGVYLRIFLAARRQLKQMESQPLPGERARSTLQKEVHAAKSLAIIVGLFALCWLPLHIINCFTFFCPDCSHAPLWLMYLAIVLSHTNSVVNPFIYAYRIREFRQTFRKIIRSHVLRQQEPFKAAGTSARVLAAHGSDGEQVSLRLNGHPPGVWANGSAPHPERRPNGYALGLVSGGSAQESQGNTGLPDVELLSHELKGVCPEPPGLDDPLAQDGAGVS

[2] = biological target: T1, Polyunsaturated fatty acid lipoxygenase ALOX15 (Oryctolagus cuniculus, UniProt P12530); experiment: biochemical; format: tissue-based, Reticulocytes;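 also: inhibition of 15-lipoxygenase enzyme activity measured with linoleic acid as the substrate; in other assays of this panel Not Active means under 50% inhibition at 10 µM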
T1 sequence (P12530 whole entry): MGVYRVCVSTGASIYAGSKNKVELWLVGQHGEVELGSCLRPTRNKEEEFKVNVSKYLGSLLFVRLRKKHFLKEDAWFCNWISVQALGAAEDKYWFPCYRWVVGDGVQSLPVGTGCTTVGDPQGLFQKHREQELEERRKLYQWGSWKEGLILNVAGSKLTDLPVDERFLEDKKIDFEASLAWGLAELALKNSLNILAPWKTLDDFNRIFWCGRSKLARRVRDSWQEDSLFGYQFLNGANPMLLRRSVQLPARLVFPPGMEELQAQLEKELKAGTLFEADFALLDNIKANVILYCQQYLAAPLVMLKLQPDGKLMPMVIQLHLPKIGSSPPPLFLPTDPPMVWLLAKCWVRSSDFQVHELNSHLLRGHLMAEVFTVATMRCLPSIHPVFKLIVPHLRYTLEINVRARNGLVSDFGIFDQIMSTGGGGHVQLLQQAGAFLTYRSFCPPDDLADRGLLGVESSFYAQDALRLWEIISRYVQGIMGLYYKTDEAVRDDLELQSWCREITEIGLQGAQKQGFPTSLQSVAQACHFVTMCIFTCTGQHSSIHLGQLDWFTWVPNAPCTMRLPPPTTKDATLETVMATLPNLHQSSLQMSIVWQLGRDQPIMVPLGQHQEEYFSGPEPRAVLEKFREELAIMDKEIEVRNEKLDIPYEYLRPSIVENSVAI

[3] = DRUGMATRIX: Glutamate, AMPA radioligand binding (ligand: [3H] AMPA); format: cell membranes, Rattus norvegicus, Wistar, Cerebral cortex, Membrane; settings: Not Active = under 50% inhibition at 10 µM

For COc1ccccc1C(=O)N1CCC(Cc2ccccc2)CC1, the IC50 (Cannabinoid receptor 1) was “Not Active”, the IC50 [1] was “Not Active” and the Ki [1] was “Not Active”. For the same molecule, the IC50 (Cytochrome P450 3A4) was “Not Active”, the Ki (Cytochrome P450 3A4) was “Not Active” and the IC50 (Adenosine receptor A2a) was “Not Active”. For the same molecule, the IC50 ([2]; reticulocytes) was “Not Active”, the IC50 [3] was “Not Active” and the Ki [3] was “Not Active”.
For Cc1ccccc1C(=O)N1CCC(Cc2ccccc2)CC1, the IC50 (Cannabinoid receptor 1) was “Not Active”, the IC50 [1] was “Not Active” and the Ki [1] was “Not Active”. For the same molecule, the IC50 (Cytochrome P450 3A4) was “Not Active”, the Ki (Cytochrome P450 3A4) was “Not Active” and the IC50 (Adenosine receptor A2a) was “Not Active”. For the same molecule, the IC50 ([2]; reticulocytes) was “Not Active”, the IC50 [3] was “Not Active” and the Ki [3] was “Not Active”.
For O=C1CC[C@H](N2C(=O)c3ccccc3C2=O)C(=O)N1, the IC50 (Cannabinoid receptor 1) was “Not Active”, the IC50 [1] was “Not Active” and the Ki [1] was “Not Active”. For the same molecule, the IC50 (Cytochrome P450 3A4) was “Not Active”, the Ki (Cytochrome P450 3A4) was “Not Active” and the IC50 (Adenosine receptor A2a) was “Not Active”. For the same molecule, the IC50 ([2]; reticulocytes) was “Not Active”, the IC50 [3] was “Not Active” and the Ki [3] was “Not Active”.
For N=C(Nc1ccccc1)Nc1ccccc1, the IC50 (Cannabinoid receptor 1) was “Not Active”, the IC50 ([1]; read-out: IC50) was 2640 nM and the Ki ([1]; read-out: Ki) was 1620 nM. The IC50 (Cytochrome P450 3A4) was “Not Active”, the Ki (Cytochrome P450 3A4) was “Not Active” and the IC50 (Adenosine receptor A2a) was “Not Active”. For the same molecule, the IC50 ([2]; reticulocytes) was “Not Active”, the IC50 [3] was “Not Active” and the Ki [3] was “Not Active”.
For C[C@@H](O)[C@H](CO)NC(=O)[C@@H]1CSSC[C@H](NC(=O)[C@H](N)Cc2ccccc2)C(=O)N[C@@H](Cc2ccccc2)C(=O)N[C@H](Cc2c[nH]c3ccccc23)C(=O)N[C@@H](CCCCN)C(=O)N[C@@H]([C@@H](C)O)C(=O)N1 (H-[dF]CF[dW]KTC-{Threoninol(2S,3R)}; disulfide 2-7), the IC50 (Cannabinoid receptor 1) was “Not Active”, the IC50 [1] was “Not Active” and the Ki [1] was “Not Active”. For the same molecule, the IC50 (Cytochrome P450 3A4) was “Not Active”, the Ki (Cytochrome P450 3A4) was “Not Active” and the IC50 (Adenosine receptor A2a) was “Not Active”. For the same molecule, the IC50 ([2]; reticulocytes) was “Not Active”, the IC50 [3] was “Not Active” and the Ki [3] was “Not Active”.
With S=C=Nc1cccc2ccccc12 [1-NAPHTHYLISOTHIOCYANATE] the IC50 (Cannabinoid receptor 1) was “Not Active”, the IC50 [1] was “Not Active” and the Ki [1] was “Not Active”. The IC50 (Cytochrome P450 3A4) was “Not Active”, the Ki (Cytochrome P450 3A4) was “Not Active” and the IC50 (Adenosine receptor A2a) was “Not Active”. The IC50 ([2]; reticulocytes) was “Not Active”, the IC50 [3] was “Not Active” and the Ki [3] was “Not Active”.
With C[C@](O)(CS(=O)(=O)c1ccc(F)cc1)C(=O)Nc1ccc(C#N)c(C(F)(F)F)c1 [(R)-BICALUTAMIDE] the IC50 (Cannabinoid receptor 1) was “Not Active”, the IC50 [1] was “Not Active” and the Ki [1] was “Not Active”. The IC50 (Cytochrome P450 3A4) was “Not Active”, the Ki (Cytochrome P450 3A4) was “Not Active” and the IC50 (Adenosine receptor A2a) was “Not Active”. The IC50 ([2]; reticulocytes) was “Not Active”, the IC50 [3] was “Not Active” and the Ki [3] was “Not Active”.
With CCCC(=O)Nc1ccc(OCC(O)CNC(C)C)c(C(C)=O)c1 (centres undefined) [ACEBUTOLOL] the IC50 (Cannabinoid receptor 1) was “Not Active”, the IC50 [1] was “Not Active” and the Ki [1] was “Not Active”. For the same molecule, the IC50 (Cytochrome P450 3A4) was “Not Active”, the Ki (Cytochrome P450 3A4) was “Not Active” and the IC50 (Adenosine receptor A2a) was “Not Active”. The IC50 ([2]; reticulocytes) was “Not Active”, the IC50 [3] was “Not Active” and the Ki [3] was “Not Active”.
In the case of CC(=O)Nc1ccc(O)cc1 [ACETAMINOPHEN], the IC50 (Cannabinoid receptor 1) is reported as “Not Active”, the IC50 [1] is reported as “Not Active” and the Ki [1] is reported as “Not Active”. The IC50 (Cytochrome P450 3A4) was “Not Active”, the Ki (Cytochrome P450 3A4) was “Not Active” and the IC50 (Adenosine receptor A2a) was “Not Active”. For the same molecule, the IC50 ([2]; read-out: IC50) was 28400 nM, the IC50 [3] was “Not Active” and the Ki [3] was “Not Active”.
With COc1cc2c(c3oc(=O)c4c(c13)CCC4=O)[C@@H]1C=CO[C@@H]1O2 [AFLATOXIN] the IC50 (Cannabinoid receptor 1) was “Not Active”, the Ki (Cannabinoid receptor 1) was “Not Active” and the IC50 [1] was “Not Active”. The Ki [1] was “Not Active”, the IC50 (Cytochrome P450 3A4) was “Not Active” and the Ki (Cytochrome P450 3A4) was “Not Active”. The IC50 (Adenosine receptor A2a) was “Not Active”, the Ki (Adenosine receptor A2a) was “Not Active” and the IC50 ([2]; reticulocytes) was “Not Active”. The Ki ([2]; reticulocytes) was “Not Active”, the IC50 [3] was “Not Active” and the Ki [3] was “Not Active”.
For N=C(N)NC(=O)c1nc(Cl)c(N)nc1N [AMILORIDE], the IC50 (Cannabinoid receptor 1) was “Not Active”, the IC50 [1] was “Not Active” and the Ki [1] was “Not Active”. For the same molecule, the IC50 (Cytochrome P450 3A4) was “Not Active”, the Ki (Cytochrome P450 3A4) was “Not Active” and the IC50 (Adenosine receptor A2a) was “Not Active”. For the same molecule, the IC50 ([2]; reticulocytes) was “Not Active”, the IC50 [3] was “Not Active” and the Ki [3] was “Not Active”.
With Cc1cc(=O)n(-c2ccccc2)n1C [ANTIPYRINE] the IC50 (Cannabinoid receptor 1) was “Not Active”, the IC50 [1] was “Not Active” and the Ki [1] was “Not Active”. For the same molecule, the IC50 (Cytochrome P450 3A4) was “Not Active”, the Ki (Cytochrome P450 3A4) was “Not Active” and the IC50 (Adenosine receptor A2a) was “Not Active”. For the same molecule, the IC50 ([2]; reticulocytes) was “Not Active”, the IC50 [3] was “Not Active” and the Ki [3] was “Not Active”.
With CN1C(=O)COc2c(C(=O)NC3CN4CCC3CC4)cc(Cl)cc21 (centres undefined) [AZASETRON] the IC50 (Cannabinoid receptor 1) was “Not Active”, the IC50 [1] was “Not Active” and the Ki [1] was “Not Active”. The IC50 (Cytochrome P450 3A4) was “Not Active”, the Ki (Cytochrome P450 3A4) was “Not Active” and the IC50 (Adenosine receptor A2a) was “Not Active”. The IC50 ([2]; reticulocytes) was “Not Active”, the IC50 [3] was “Not Active” and the Ki [3] was “Not Active”.
With C[C@H]1C[C@H]2[C@@H]3CCC4=CC(=O)C=C[C@]4(C)[C@@]3(Cl)[C@@H](O)C[C@]2(C)[C@@]1(O)C(=O)CO [BECLOMETHASONE] the IC50 (Cannabinoid receptor 1) was “Not Active”, the IC50 [1] was “Not Active” and the Ki [1] was “Not Active”. The IC50 (Cytochrome P450 3A4) was “Not Active”, the Ki (Cytochrome P450 3A4) was “Not Active” and the IC50 (Adenosine receptor A2a) was “Not Active”. For the same molecule, the IC50 ([2]; reticulocytes) was “Not Active”, the IC50 [3] was “Not Active” and the Ki [3] was “Not Active”.
